Assay [1] addresses T1, caspase-7 (C7) (Homo sapiens, UniProt P55210).
T1 construct: gene CASP7; mature (processed, active) caspase-7, dimer, 6xHis tag; expression details only in supplement
T1 sequence (P55210 24-198): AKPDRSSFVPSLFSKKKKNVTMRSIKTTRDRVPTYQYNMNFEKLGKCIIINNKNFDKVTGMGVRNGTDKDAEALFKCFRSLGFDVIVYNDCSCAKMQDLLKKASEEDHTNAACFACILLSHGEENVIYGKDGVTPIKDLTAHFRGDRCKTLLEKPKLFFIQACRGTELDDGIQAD
T1 sequence (P55210 207-303): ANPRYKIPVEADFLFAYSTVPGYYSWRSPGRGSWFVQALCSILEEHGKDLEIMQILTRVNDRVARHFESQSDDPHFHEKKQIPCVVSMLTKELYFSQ
Nature of the assay: steady-state kinetics, Ac-DEVD-AFC cleavage. The assay is classed as biochemical.

The target in assay [2] is T1, caspase-7 (C7). The assay can be described thus: SPR OneStep injection, His-captured protein, […] fit. The settings on record: read-out: Dissociation constant. Type of assay: binding.
The target of assay [3] is T1, caspase-7 (C7). Nature of the assay: fluorogenic Ac-DEVD-AFC cleavage assay. The assay is classed as biochemical.

Molecules are shown by their SMILES.

By Ki is commonly meant the equilibrium dissociation constant of an inhibitor or competing ligand from its target. Read a low Ki as higher affinity. The IC50 is the concentration at which inhibition is half-maximal. A lower IC50 goes with inhibition by little substance.

Regarding `CC(=O)c1ccccc1Sc1ccccc1C(=O)O` [compound 1, 1], the inhibitory constant (Ki) in assay [1] worked out at 5.47 ± 0.398 mM. The Kd in assay [2] stood at 8 ± 3 mM. In assay [3], this molecule showed an IC50 of 3.98 ± 0.00105 mM.
As for `O=C(O)C1c2ccccc2Oc2ccccc21` [compound 2, 2], the Ki in assay [1] came out at 4.32 ± 0.194 mM. Besides, the Kd in assay [2] was 4.09 ± 0.3 mM. Besides, it took 8.52 ± 0.0012 mM to reach half-maximal inhibition in assay [3] (IC50).
In assay [1], `O=C(O)Cc1ccccc1Sc1ccccc1` [compound 6, 6] had an inhibition constant Ki of 0.667 ± 0.0319 mM. 0.637 ± 0.00104 mM corresponded to half-maximal inhibition in assay [3] (IC50).

These data come from publication PMC5698726, “Allosteric Tuning of Caspase‐7: A Fragment‐Based Drug Discovery Approach” (Angewandte Chemie (International Ed. in English), 2017).
